Experimental findings from patent publication US10953015B2, “Use of adenosine receptor signaling to regulate P-gp function” (CORNELL UNIVERSITY, priority 2016, dated 2021) are described below.

In one assay the test system is P-gp and MMP9. Put plainly: Immunoprecipitation/IFA of P-gp with MMP9 in HBMVEC. The class given is cell-based, human. The following applies: 1 μM for 5 minutes. The text has this:
FIG. 8A is a schematic diagram of the experimental procedure for analysis of Lexiscan®'s effect on P-gp solubility and excretion in primary brain endothelial cells (“HBMVEC”). FIGS. 8B-8C are western blots and graphs summarizing the experimental result of each western blot. FIGS. 8B-8C show the analysis of P-gp expression of HBMVEC upon activation with Lexiscan® at different time points after lysis with RIPA buffer (FIG. 8B) or CSK buffer to measure P-gp levels in the cytoskeletal fraction (FIG. 8C). Band intensity was normalized to GAPDH and graphed. […] Band intensity was normalized using GAPDH and plotted. FIG. 8E is a western blot of secreted P-gp in HBMVEC upon activation with Lexiscan® in absence or presence of an MMP9 inhibitor: both short and long exposures of western blot from MMP9 inhibitor-treated samples are shown. Band intensity was plotted as a graph. FIG. 8F is a western blot showing the results of an Immunoprecipitation assay of MMP9 with lysate from HBMVEC treated with vehicle (control) or 1 μM of Lexiscan® for 5 minutes. P-gp was pulled down using anti-P-gp antibody and immunoblotted with an anti-MMP9 antibody. […] FIG. 8H is a graph summarizing the intensity of fluorescence of MMP9 from FIG. 8G. Fluorescent intensity of MMP9 was quantified and plotted as graph (n=20). **P<0.01 (2-tailed Student's t test, 1 representative result of 3 different experiments). […]

Assay [1] deals with P-gp. Description: Epirubicin accumulation and P-gp staining in MCF7 cells (fluorescence microscopy). Conditions: 1 μM. Format: cell-based, human. The procedure:
MCF7 cells (human breast cancer cell line) were cultured in 24 well plates until they reached confluency. FIGS. 17A-17C are images of western blots of cells treated with vehicle control (i.e., DMSO) (“D”) or 1 μM of the broad spectrum AR agonist NECA (“N”) (FIG. 17A), 1 μM of the A2A AR agonist Lexiscan® (“L”) (FIG. 17B), or 1 μM of the A2B AR agonist BAY60 (“B”) (FIG. 17C), respectively for 24, 48, 72 hours. Cells were lysed with lysis buffer and expression levels of P-gp, MMP9, or VEGF analyzed by western blot. GAPDH was used as loading a control. FIG. 17D is a graph of experimental results showing that Lexiscan® down-regulates P-gp expression in MCF7 breast cancer cells. MCF7 breast cancer cells were treated with Lex (0.25 μM) concomitant with Rhodamine 123 (“Rho123”). […] Students T test, P<0.001. […] FIG. 17E is a fluorescence microscopy image showing MCF7 breast cancer cells grown on coverslips and treated with vehicle (DMSO, control), or A2 AR agonists, Lexiscan® (1 μM) or A1193 (1 μM) for 15 minutes in the presence of epirubicin. Cells were stained with an antibody to P-gp and mounted with DAPI. FIG. 17F is a graph of the fluorescent intensity quantified from FIG. 17E by measuring the mean fluorescent intensity (“MFI”) of epirubicin (pink) that is present in cell nuclei. ***=P<0.0001.
To further assess the modulation of A2A AR agonists on P-gp expression in MCF7 cells, applicants evaluated the accumulation of the P-gp substrate epirubicin in MCF7 cells. MCF7 cells were treated with DMSO (control), 1 μM Lexiscan®, or 1 μM of the A2A AR agonist A1193. […] In this case, the down-regulation of P-gp expression is equivalent to down-regulation of its function (Kim et al., “A2A Adenosine Receptor Modulates Drug Efflux Transporter P-Glycoprotein at the Blood-Brain Barrier,” J Clin Invest. 126(5):1717-33 (2016), which is hereby incorporated by reference in its entirety).

The subject of assay [2] is P-gp. Put plainly: P-gp expression in intestinal organoids (mean fluorescence intensity). The class given is cell-based. Conditions: organoids from C57BL6 mouse intestine; 1 μM; 15 minutes. The procedure: Freshly isolated intestines from wildtype […] mice were cultured and grown to confluency to generate Organoids, which are 3D organotypic cultures derived from primary intestinal tissues (either tissue subunits or single cells), embryonic stem cells (“ESCs”), and induced pluripotent stem cells (“iPSCs”). Organoids were treated with 1 μM Lexiscan® or A1193 (A2A AR agonist) for 15 minutes, washed, and stained with antibodies to P-gp and DAPI. Mean fluorescent intensity was measured in each organoid. Data presented as a measure of P-gp expression between the two agonists. *=significance where P<0.05.
Applicants next evaluated whether A2A AR agonists can modulate P-gp expression in gut epithelial cells. Freshly isolated intestines from wildtype C57BL6 mice were cultured and grown to confluency to generate Organoids, which are three-dimensional organotypic cultures derived from primary intestinal tissues (either tissue subunits or single cells), embryonic stem cells (“ESCs”), or induced pluripotent stem cells (“iPSCs”). Organoids were treated with the A2A AR agonists Lexiscan® or A1193 for 15 minutes, washed, and stained with antibodies to P-gp and DAPI.

`CNC(=O)c1cnn(-c2nc(N)c3ncn([C@@H]4O[C@H](CO)[C@@H](O)[C@H]4O)c3n2)c1` [Lexiscan®, 1-[6-amino-9-[(2R,3R,4S,5R)-3,4-dihydroxy-5-(hydroxymethyl)oxolan-2-yl]purin-2-yl]-N-methylpyrazole-4-carboxamide]: the “Interaction between P-gp and MMP9” value with P-gp and MMP9 was “induced rapid interaction between P-gp and MMP9”. Moreover, the “P-gp expression (antibody staining)” value with P-gp [1] (15 minutes) is reported as “down-regulate P-gp expression”. The “Epirubicin accumulation (MFI in cell nuclei)” value in the assay on P-gp [1] (15 minutes in the presence of epirubicin) is reported as “retained more epirubicin than those treated with control”. Further, in the assay with P-gp [2], the “P-gp expression (mean fluorescent intensity)” value is “significantly down-regulates P-gp expression in freshly isolated and cultured colonic organoids”.
